The source of these data is PubChem BioAssay (NCI).

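How tested: cells in 96-well plates exposed to compound for 48 hours at five concentrations. TGI marks complete inhibition of growth.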 A value given as a limit tells only on which side of the number the result lay.

Test systems include EKVX NSCLC; BT-549 breast; OVCAR-4 ovarian; MDA-MB-435; HL-60(TB) leukemia; K-562 leukemia; MALME-3M melanoma; SF-268 CNS; NCI-H23 lung; CAKI-1 renal.
Experiment in all cases: DTP human tumour cell line panel, 48 h

As for `CSc1nc(=O)c2nc(-c3cccs3)c(-c3cccs3)nc2n1C`, the TGI in the assay with EKVX NSCLC, in the assay on BT-549 breast, in the assay with OVCAR-4 ovarian, with MDA-MB-435, with HL-60(TB) leukemia and in the assay with K-562 leukemia was > 100 µM each time. The TGI in the assay on MALME-3M melanoma, with SF-268 CNS, in the assay with NCI-H23 lung and with CAKI-1 renal was > 100 µM in each case.

On to `Clc1ccc(/C(=C/c2ccccc2)Cn2ccnc2)cc1`, for which the TGI is > 100 µM in the assay with EKVX NSCLC; 96.2 µM in the assay on BT-549 breast; > 100 µM in the assay with OVCAR-4 ovarian; 67.7 µM with MDA-MB-435; 46.3 µM in the assay on HL-60(TB) leukemia; > 100 µM in the assay with K-562 leukemia. Besides, the TGI with MALME-3M melanoma, in the assay on SF-268 CNS, with NCI-H23 lung and in the assay with CAKI-1 renal was > 100 µM each time.

For the compound `C/C(=C\CSCC(N)C(=O)O)CC/C=C(\C)CNc1ccccc1` (stereo not given), the TGI in the assay with EKVX NSCLC, in the assay with BT-549 breast, with OVCAR-4 ovarian, with MDA-MB-435, with HL-60(TB) leukemia and in the assay on K-562 leukemia was > 100 µM in each case. For the same compound, the TGI in the assay on MALME-3M melanoma, with SF-268 CNS, in the assay on NCI-H23 lung and in the assay on CAKI-1 renal was > 100 µM each time.

With `CC1=C(C)SC(=C2Sc3c(n(C)c(=O)n(C)c3=O)S2)S1`, the TGI in the assay on EKVX NSCLC was > 100 µM; in the assay with BT-549 breast, > 100 µM; with OVCAR-4 ovarian, 58.3 µM; with MDA-MB-435 it was > 100 µM; with HL-60(TB) leukemia it was > 100 µM; with K-562 leukemia it was > 100 µM. Further, the TGI with MALME-3M melanoma, with SF-268 CNS, in the assay on NCI-H23 lung and in the assay with CAKI-1 renal was > 100 µM throughout.

On to `O=C1C=CC(=O)c2c(O)c(N3CCC[C@@H]3CO)c(Cl)c(O)c21`, for which the TGI in the assay on EKVX NSCLC was determined as 3.55 µM; in the assay on BT-549 breast it was 3.7 µM; in the assay on OVCAR-4 ovarian, 3.16 µM; with MDA-MB-435 it was 3.78 µM; in the assay on HL-60(TB) leukemia it was 0.734 µM; with K-562 leukemia it was 2.22 µM. The TGI stood at 3.07 µM in the assay with MALME-3M melanoma, 1.74 µM in the assay on SF-268 CNS, 3.55 µM in the assay on NCI-H23 lung and 2.94 µM with CAKI-1 renal.

`CC(=O)Oc1ccn2nc(C)c(Br)c2c1`: the total growth inhibition concentration (TGI) in the assay on EKVX NSCLC is > 100 µM; in the assay with BT-549 breast, > 100 µM; in the assay with OVCAR-4 ovarian, > 100 µM; with MDA-MB-435 it was > 61.8 µM; in the assay on HL-60(TB) leukemia it was > 86.5 µM; with K-562 leukemia it was > 100 µM. For the same compound, the TGI in the assay with MALME-3M melanoma, in the assay with SF-268 CNS and in the assay with NCI-H23 lung was > 100 µM each time.

Regarding `COc1ccc([C@]23CCC4(OCC(C)(C)CO4)[C@H]4CON(O[C@H](O[C@@H]5CCCCC5C(C)(C)c5ccccc5)C2)[C@@H]43)cc1OC` (stereo not given in full), the TGI with EKVX NSCLC was > 100 µM; in the assay on BT-549 breast it was > 100 µM; in the assay with OVCAR-4 ovarian it was > 100 µM; in the assay with MDA-MB-435, > 100 µM; in the assay with HL-60(TB) leukemia, 44.4 µM; in the assay on K-562 leukemia, > 100 µM. In addition, the TGI with MALME-3M melanoma is > 100 µM; with NCI-H23 lung, > 100 µM; with CAKI-1 renal, 39 µM.

With `CCOC(=O)N1CCN(c2c(N)nc(C)[nH]c2=O)CC1`, the TGI in the assay with EKVX NSCLC, with BT-549 breast, with OVCAR-4 ovarian, with MDA-MB-435, in the assay with HL-60(TB) leukemia and with K-562 leukemia was > 100 µM in each case. The TGI with MALME-3M melanoma, in the assay on SF-268 CNS and with NCI-H23 lung was > 100 µM in each case.

For `O=c1c2ccc(Cl)cc2oc2c(CNc3ccc(S(=O)(=O)Nc4ncccn4)cc3)cccc12`, the TGI with EKVX NSCLC, in the assay with BT-549 breast, in the assay on OVCAR-4 ovarian, with MDA-MB-435, in the assay with HL-60(TB) leukemia and with K-562 leukemia was > 100 µM throughout. For the same compound, the TGI with MALME-3M melanoma, with NCI-H23 lung and in the assay with CAKI-1 renal was > 100 µM each time.

With `Cc1ccc(C)c(COCCOCn2cc(N3CCOCC3)c(=O)[nH]c2=O)c1`, the TGI in the assay on EKVX NSCLC, in the assay on BT-549 breast, with MDA-MB-435, with HL-60(TB) leukemia, with K-562 leukemia and in the assay with MALME-3M melanoma was > 100 µM each time. For the same compound, the TGI in the assay with SF-268 CNS, in the assay with NCI-H23 lung and with CAKI-1 renal was > 100 µM each time.

Regarding `CCN(CC)C(=S)N/N=C(/c1ccccc1)c1ccccn1`, the TGI was > 56.7 µM in the assay with EKVX NSCLC; > 100 µM in the assay with BT-549 breast; 23.8 µM with OVCAR-4 ovarian; > 47.3 µM with MDA-MB-435; 1.59 µM in the assay with HL-60(TB) leukemia; > 100 µM with K-562 leukemia. Further, the TGI with MALME-3M melanoma was > 47.1 µM; in the assay on NCI-H23 lung, > 43.3 µM; with CAKI-1 renal, 11 µM.

`CC[C@H](NC(=O)OC(C)(C)C)C(=O)NCP(=O)(OCc1ccc([N+](=O)[O-])cc1)OCc1ccc([N+](=O)[O-])cc1`: the TGI with BT-549 breast was > 100 µM; with OVCAR-4 ovarian it was > 100 µM; in the assay with MDA-MB-435, > 100 µM; in the assay on HL-60(TB) leukemia, 62.2 µM; in the assay with MALME-3M melanoma, > 100 µM; in the assay with SF-268 CNS, > 100 µM. For the same compound, the TGI in the assay on NCI-H23 lung and with CAKI-1 renal was > 100 µM throughout.

On to `CC(C)(C)/C(O)=C\c1nc2cc(F)c(F)cc2[nH]c1=O`, for which the TGI with EKVX NSCLC, in the assay with BT-549 breast, in the assay with OVCAR-4 ovarian, in the assay on MDA-MB-435, in the assay on HL-60(TB) leukemia and with K-562 leukemia was > 100 µM in each case. Further, the TGI in the assay with SF-268 CNS, with NCI-H23 lung and with CAKI-1 renal was > 100 µM each time.

Take `Cc1cc(S(=O)(=O)N=C2Nc3cccc4cccc(c34)N2)c(S)cc1Cl`: the TGI in the assay with EKVX NSCLC, with BT-549 breast, in the assay with OVCAR-4 ovarian, with MDA-MB-435, in the assay with HL-60(TB) leukemia and in the assay on K-562 leukemia was > 100 µM in each case. Moreover, the TGI in the assay on MALME-3M melanoma, in the assay on SF-268 CNS and in the assay on CAKI-1 renal was > 100 µM in each case.
